# Measurements from patent US20160136120A1, “TRANSDERMAL DELIVERY KITS” (ASCLEMED USA, INC. dba EnovaChem Manufacturing, priority 2013, published 2016).
# Assay: Stability tests of API mixed with Microderm base, stored in a jar with closed lid (LC-UV assay)
# Type: physicochemical
# Conditions: as illustrated in the stability studies
# Experimental: The stability tests were carried out by mixing the API (USP strength) with Microderm™, and placing the resulting composition in ajar with a closed lid.
# Column: 4.6-mm×25.0-cm; 5-μm packing L1
# Storage condition: 20° C. to 25° C. (68° F. to 77° F.)
smiles,measurement,value
"NCC(CC(=O)O)c1ccc(Cl)cc1 (stereo not drawn) [Baclofen, β-(4-chlorophenyl)-γ-aminobutyric acid]",Susceptibility to degradation,particularly susceptible to degradation
